Measured values: patent US12521387B2, “Prophylactic or therapeutic drug for neurodegenerative diseases” (Medilabo RFP, Inc., priority 2019, dated 2026)
“Also recorded” adds a separate entry of the source. Where two headings read alike, the source gives them in different places.

Tests used:
Aβ42 = target: T1, Aβ42 (Homo sapiens, UniProt P05067); assay: Suppression of the toxicity of Aβ42; conditions: confirmed by the present inventors
T1 construct: suppress the toxicity of Aβ42

Aβ oligomers = target: T2, Aβ oligomers (Homo sapiens, UniProt P05067, DEL693-693); assay type: in vivo, mouse; conditions: APPOSK mice, transnasal, every day for 1 month
T2 construct: had accumulation of amyloid-β (Aβ) protein; from tissue; host or cells: brain (hippocampus) of APPOSK transgenic mice
Excerpt: (§1) Each of Aβ oligomers (Aβ oligomers have been believed to cause the phosphorylation of tau and the decrease in synaptophysin), synaptophysin (a marker protein for a synapse) and phosphorylated tau was stained by an immunohistochemical staining method in accordance with the procedure described in Umeda et al. Brain 2016; 139: 1568-86. For the staining of the Aβ oligomers, 11A1 antibody (Immuno-Biological Laboratories Co, Ltd.) was used; for the staining of synaptophysin, SVP-38 antibody (Sigma) was used; and for the staining of phosphorylated tau, mouse monoclonal PHF-1 antibody (an anti-p-Ser396/404-tau antibody, provided by Peter Davies, Ph. d., Albert Einstein College of Medicine). After the staining, each of the Aβ oligomers, synaptophysin and phosphorylated tau was quantified using NIH image-J.

[1] = tested on: patients having mild to moderate Alzheimer's disease; conditions: 119 patients, 52 weeks; 500 mg, increased by 500 mg every 13 weeks to 1000 mg twice per day; cited from earlier work
APPOSK mice [2] = assay: Morris water maze behavioral test (spatial reference memory, cognitive function) in Alzheimer's disease model mice; assay type: in vivo, mouse; conditions: for Cognitive function (Morris water maze): transnasal
Excerpt: Eleven-month-old male APPOSK mice (Tomiyama et al. J Neurosci. 2010; 30: 4845-56) were provided. The body weight of each of the APPOSK mice was about 30 g. Sixty APPOSK mice were divided into five groups A to E each including 12 mice. Separately, 12 wild-type mice (non-Tg littermate) of the same month old were provided. The APPOSK mice were amyloid precursor protein (APP) transgenic mice (Alzheimer's disease models), and had accumulation of amyloid-β (Aβ) protein.
For oral administration, an oral sound for rodents was used; for transnasal administration, pipetman (white tip) was used; and for subcutaneous administration, an injection syringe was used. All of these administrations were carried out under non-anesthesia.
The behavioral test was carrying out by determining the spatial reference memory of each of the mice using a Morris water maze in accordance with the method described in Umeda et al. Brain 2016; 139: 1568-86.
Thirteen-month-age (13 mo) individuals of the APPOSK mice shown in Test Example 1 were used.

APPOSK mice [3] = assay: Liver enzymes AST (GOT) and ALT (GPT) in serum (hepatic dysfunction); assay type: in vivo, mouse; conditions: for AST level (in words): transnasal
Excerpt: Blood was collected from each of the mice after the completion of the behavioral test, and then serum was separated from the blood to prepare a serum sample.

[4] = tested on: mitogen (division promoting factor)-activated protein (MAP) kinase; conditions: differentiated or undifferentiated human neuroblast SH-SY5Y; cited from earlier work
[5] = tested on: Tauopathy model mice (Tau784); assay: Morris water maze behavioral test (cognitive function) in tauopathy model mice; assay type: in vivo, mouse; conditions: Tau784 mice 14-15 mo, transnasal, every day for 1 month
Excerpt: Tauopathy model mice (Umeda T et al., Am. J. Pathol. 183, 211-225, 2013) were provided, 14- to 15-month-old individuals of the model mice were used as subjects of administration.

[6] = tested on: causative protein for a neurodegenerative disease; assay: Suppression of the aggregation of a causative protein for a neurodegenerative disease; conditions: confirmed by the present inventors
phosphorylated tau = assay: Immunohistochemical staining and quantification of phosphorylated tau in hippocampus (PHF-1 antibody); assay type: in vivo, mouse; conditions: APPOSK mice; rifampicin 0.05 mg/day transnasal, every day for 1 month; listed as Reference Working Example 3
Excerpt: as §1

tau = assay: In vitro formation of oligomers of tau
Aβ = Aβ (Homo sapiens, UniProt P05067); assay: In vitro formation of oligomers of Aβ
α-synuclein = α-synuclein (Homo sapiens, UniProt P37840); assay: In vitro formation of oligomers of α-synuclein
[7] = tested on: α-synuclein transgenic (αSyn-Tg) mice each having an A53T mutation; assay: Morris water maze behavioral test (cognitive function) in synucleinopathy model mice; assay type: in vivo, mouse; conditions: αSyn-Tg 6 mo mice (DLB model); rifampicin 0.1 mg/day transnasal, every day for 1 month; listed as Reference Working Example 5
Method: As synucleinopathy models, α-synuclein transgenic (αSyn-Tg) mice each having an A53T mutation were purchased from Jackson Laboratories. […] Therefore, in this Test Example, αSyn-Tg 6 mo mice and αSyn-Tg 9 mo mice were used as the subjects of administration.
The motor function and the cognitive function of each of the model mice were confirmed by a motor function test and a cognitive function test as mentioned below. The motor function test was carried out using a rotarod. Each of the mice was placed on a rotor which could rotate at a speed of 5 rpm (5 rotations per minute), was then subjected to such a training that the mouse was allowed to walk on the rotor for 3 minutes, and was then placed on a rotor of which the speed of rotation could increase from 4 rpm to 40 rpm over 4 minutes, and the time (seconds) until the mouse fell off the rotor was measured (when the mouse was turned once while holding on to the rotor, it was deemed that the mouse fell off). The measurement was carried out twice per day, and an average value of the measurement values was determined. The cognitive function test was carried out in accordance with the method described in Umeda et al. Brain 2016; 139: 1568-86 by measuring the spatial reference memory of the mice using a Morris water maze (the cognitive function test in the below-mentioned examples was carried out in the same manner as in this Test Example). […]

synaptophysin = assay: Immunohistochemical staining and quantification of synaptophysin in hippocampus (SVP-38 antibody); assay type: in vivo, mouse; conditions: APPOSK mice; rifampicin 0.05 mg/day transnasal, every day for 1 month; listed as Reference Working Example 3
Excerpt: as §1

[8] = tested on: AD model mouse in which Aβ is accumulated; assay: Oral administration to AD model mouse; assay type: in vivo; conditions: orally administered
[9] = tested on: FTD model mouse in which tau is accumulated; assay: Oral administration to FTD model mouse; assay type: in vivo; conditions: orally administered
[10] = APPOSK mice, serum, rifampicin 0.05 mg/day transnasal, every day for 1 month, Mean ± SEM, n = 11

Oc1ccc(/C=C/c2cc(O)cc(O)c2)cc1 [resveratrol, 3,5,4′-trihydroxy-trans-stilbene]
Effect to suppress the toxicity of Aβ42 (Aβ42): significantly weaker compared with rifampicin
Removal of accumulated Aβ oligomers (immunostaining) (Aβ oligomers; resveratrol 0.02 mg/day alone, listed as Reference Example 10): the effect to remove the accumulated Aβ oligomers was observed, but the level of the effect was smaller than that in Example 1; also recorded: the accumulated Aβ oligomers removing effect was confirmed; also recorded: the significant removal of the accumulated oligomers was observed
Effectiveness on Alzheimer's disease compared with placebo [1]: the effectiveness of the administration of resveratrol could not been confirmed
Cognitive function (Morris water maze) (APPOSK mice [2]; APPOSK mice 13 mo, resveratrol 0.02 mg/day, every day for 1 month (Test Example 6)): the cognitive function-improving effect was observed, although the effect was exerted slowly
Cognitive function (Morris water maze) (APPOSK mice [2]; APPOSK mice 13 mo, resveratrol 0.1 mg/day, every day for 1 month (Test Example 6)): the improvement of cognitive function was observed to a level close to that observed in the wild-type mice
Cognitive function (Morris water maze) (APPOSK mice [2]; APPOSK mice, resveratrol 0.02 mg/day alone, every day for 1 month (Test Example 3), listed as Reference Example 10): the cognitive function improving tendency was observed; also recorded: a slow cognitive function-improving effect on a neurodegenerative disease was observed
AST level (APPOSK mice [3]; APPOSK mice (not shown), resveratrol 0.1 mg administered alone): about 86 IU/L
AST level / liver protection activity (in words) (APPOSK mice [3]; APPOSK mice (not shown), resveratrol 0.1 mg alone, compared with Reference Example 9 (CMC)): the AST level was decreased and a positive liver protection activity was confirmed
AST level (in words) (APPOSK mice [3]; APPOSK mice, resveratrol 0.02 mg/day alone, every day for 1 month, compared with Reference Example 9 (CMC)): AST was not reduced
Phosphorylation of MAP kinase [4]: induces the phosphorylation of mitogen (division promoting factor)-activated protein (MAP) kinase
Cognitive function (Morris water maze) ([5]; resveratrol 0.02 mg/day alone, listed as Reference Example 15): the cognitive function improving effect was developed slowly; also recorded: a slow cognitive function-improving effect on a neurodegenerative disease was observed
Effect to suppress the aggregation of a causative protein for a neurodegenerative disease [6]: weak

CO[C@H]1/C=C/O[C@@]2(C)Oc3c(C)c(O)c4c(O)c(c(/C=N/N5CCN(C)CC5)c(O)c4c3C2=O)NC(=O)/C(C)=C\C=C\[C@H](C)[C@H](O)[C@@H](C)[C@@H](O)[C@@H](C)[C@H](OC(C)=O)[C@@H]1C [rifampicin, 3-(4-methylpiperazinyliminomethyl)rifamycin SV]
Effect to suppress the toxicity of Aβ42 (Aβ42): can completely suppress the toxicity of Aβ42
Phosphorylated tau reduction in the hippocampus (immunostaining) (phosphorylated tau): the amount of phosphorylated tau accumulated in the brain was decreased and high
Removal of accumulated Aβ oligomers (immunostaining) (Aβ oligomers; rifampicin 0.02 mg/day alone): the effect to remove the accumulated Aβ oligomers was observed, but the level of the effect was smaller than that in Example 1
Cognitive function (Morris water maze) (APPOSK mice [2]; APPOSK mice, rifampicin 0.02 mg/day alone, every day for 1 month): the cognitive function improving tendency was observed
Improvement of memory impairment (Morris water maze) (APPOSK mice [2]; APPOSK mice, rifampicin 0.05 mg/day transnasal, every day for 1 month, listed as Reference Working Example 3): the improvement effect was at the same level as that in the wild-type mice; also recorded: the improvement effect was higher than that in the case of oral administration
Inhibition of in vitro formation of oligomers of tau (tau): can inhibit the in vitro formation of oligomers
Inhibition of in vitro formation of oligomers of Aβ (Aβ): can inhibit the in vitro formation of oligomers
Inhibition of in vitro formation of oligomers of α-synuclein (α-synuclein): can inhibit the in vitro formation of oligomers
ALT (APPOSK mice [3]; [10]): 40 ± 10 IU/L
AST (APPOSK mice [3]; [10]): 165 ± 32 IU/L
AST level (in words) (APPOSK mice [3]; APPOSK mice, rifampicin 0.02 mg/day alone, every day for 1 month, listed as Comparative Example 1): the increase in AST level, which indicated the occurrence of adverse side effects, was observed; also recorded: significantly reduced compared with the case of oral administration
Cognitive function (Morris water maze) ([5]; rifampicin 0.02 mg/day alone): the cognitive function improving effect was developed slowly
Cognitive function / memory impairment (Morris water maze) [7]: the improvement of memory impairment was observed from day 1 after the administration; also recorded: the cognitive function was recovered to the same level as that in normal Non-Tg mice
Synaptophysin recovery in the hippocampus (immunostaining) (synaptophysin): the decreased synaptophysin was recovered; also recorded: the same level as that in the wild-type mice; also recorded: the effect was higher than that in the oral administration
Cognitive function [8]: can recover the cognitive function of the mouse
Cognitive function [9]: can recover the cognitive function of the mouse
